Reference: patent US20250051345A1, “PYRIDINE-3-CARBOXYLATE COMPOUNDS AS CAV1.2 ACTIVATORS” (Novartis AG, priority 2021, published 2025)

What was measured:
[1] = target: T1, human Cav1.2 (Homo sapiens (Human), UniProt Q13936); test: Sophion QPatch dose-response assay, whole-cell voltage clamp of barium currents in the Cav1.2-HEK293 (AUX) cell line; format: cell-based; conditions: for QPatch Emax: maximal fold change of peak inward current
Experimental: (§1) Clonal isolation was achieved under Neomycin selection.
(§2) Each experimental run uses 1.5 mL of cells.
(§3) The protocol had eight liquid periods. […] The protocol had four liquid periods.

[2] = target: T1, human Cav1.2; test: QPatch channel biophysics assay (V1/2 voltage shift, tau of inactivation) in the Cav1.2-HEK293 (AUX) cell line; format: cell-based
Experimental: as §1, §2, §3

[3] = Compound exposure in brain (cerebellum) and blood of wild-type mice; format: in vivo, mouse; conditions: C57BL/6J male mice, i.p., one hour after administration
Excerpt: (§4) Compound administration and brain tissue collection.
Quantification of compound exposure.

[4] = test system: cFos mRNA; test: cFos mRNA induction in cortex of wild-type mice (PK-PD); format: in vivo, mouse; conditions: 3 mg/kg ip, one hour after administration
Experimental: as §4
Quantification of cFos mRNA induction. Tissue homogenization was performed using TissueLyser system for 96 well plates (Qiagen). First, frozen cortical samples were thawed, removed from RNAlater, and placed into TissueLyser tubes along with Buffer RLT containing 0.5% Reagent DX and one 5 mm TissueLyser metal bead. The TissueLyser tubes were loaded into a TissueLyser II tissue homogenizer for 3 rounds of homogenization, with each round lasting 5 minutes at 30 Hz bead-beating frequency. Total RNA was purified from the homogenate using RNeasy 96 Plus kit (Qiagen), RNA concentration and A260/A280 ratio were quantified via the Nanodrop (ThermoFisher), and all samples were normalized to 100 ng/μl concentration. […]
Quantitative PCR was performed on the cDNA samples using Quantitect Multiplex RT-PCR kit (Qiagen) in a 384-well assay format. […] On the ViiA7 Real-Time PCR system (ThermoFisher), the samples were heated to 95° C. for 15 minutes then cycled between 94° C. for 45 seconds and 60° C. for 45 seconds for 45 cycles. cFos Ct values were exported, normalized to GAPDH Ct values, and converted to relative fold change in expression using the delta-delta Ct relative quantification method. cFos fold changes between compound treatments and vehicle were analyzed by one-way ANOVA, followed by Tukey's post-hoc comparisons.

[5] = 6-point dose response, 10 determinations per concentration, n = 1 unless stated
[6] = shift of half-way channel activation voltage V1/2
[7] = comparative examples, single enantiomers of reported racemates

T1 sequence (Q13936 whole entry): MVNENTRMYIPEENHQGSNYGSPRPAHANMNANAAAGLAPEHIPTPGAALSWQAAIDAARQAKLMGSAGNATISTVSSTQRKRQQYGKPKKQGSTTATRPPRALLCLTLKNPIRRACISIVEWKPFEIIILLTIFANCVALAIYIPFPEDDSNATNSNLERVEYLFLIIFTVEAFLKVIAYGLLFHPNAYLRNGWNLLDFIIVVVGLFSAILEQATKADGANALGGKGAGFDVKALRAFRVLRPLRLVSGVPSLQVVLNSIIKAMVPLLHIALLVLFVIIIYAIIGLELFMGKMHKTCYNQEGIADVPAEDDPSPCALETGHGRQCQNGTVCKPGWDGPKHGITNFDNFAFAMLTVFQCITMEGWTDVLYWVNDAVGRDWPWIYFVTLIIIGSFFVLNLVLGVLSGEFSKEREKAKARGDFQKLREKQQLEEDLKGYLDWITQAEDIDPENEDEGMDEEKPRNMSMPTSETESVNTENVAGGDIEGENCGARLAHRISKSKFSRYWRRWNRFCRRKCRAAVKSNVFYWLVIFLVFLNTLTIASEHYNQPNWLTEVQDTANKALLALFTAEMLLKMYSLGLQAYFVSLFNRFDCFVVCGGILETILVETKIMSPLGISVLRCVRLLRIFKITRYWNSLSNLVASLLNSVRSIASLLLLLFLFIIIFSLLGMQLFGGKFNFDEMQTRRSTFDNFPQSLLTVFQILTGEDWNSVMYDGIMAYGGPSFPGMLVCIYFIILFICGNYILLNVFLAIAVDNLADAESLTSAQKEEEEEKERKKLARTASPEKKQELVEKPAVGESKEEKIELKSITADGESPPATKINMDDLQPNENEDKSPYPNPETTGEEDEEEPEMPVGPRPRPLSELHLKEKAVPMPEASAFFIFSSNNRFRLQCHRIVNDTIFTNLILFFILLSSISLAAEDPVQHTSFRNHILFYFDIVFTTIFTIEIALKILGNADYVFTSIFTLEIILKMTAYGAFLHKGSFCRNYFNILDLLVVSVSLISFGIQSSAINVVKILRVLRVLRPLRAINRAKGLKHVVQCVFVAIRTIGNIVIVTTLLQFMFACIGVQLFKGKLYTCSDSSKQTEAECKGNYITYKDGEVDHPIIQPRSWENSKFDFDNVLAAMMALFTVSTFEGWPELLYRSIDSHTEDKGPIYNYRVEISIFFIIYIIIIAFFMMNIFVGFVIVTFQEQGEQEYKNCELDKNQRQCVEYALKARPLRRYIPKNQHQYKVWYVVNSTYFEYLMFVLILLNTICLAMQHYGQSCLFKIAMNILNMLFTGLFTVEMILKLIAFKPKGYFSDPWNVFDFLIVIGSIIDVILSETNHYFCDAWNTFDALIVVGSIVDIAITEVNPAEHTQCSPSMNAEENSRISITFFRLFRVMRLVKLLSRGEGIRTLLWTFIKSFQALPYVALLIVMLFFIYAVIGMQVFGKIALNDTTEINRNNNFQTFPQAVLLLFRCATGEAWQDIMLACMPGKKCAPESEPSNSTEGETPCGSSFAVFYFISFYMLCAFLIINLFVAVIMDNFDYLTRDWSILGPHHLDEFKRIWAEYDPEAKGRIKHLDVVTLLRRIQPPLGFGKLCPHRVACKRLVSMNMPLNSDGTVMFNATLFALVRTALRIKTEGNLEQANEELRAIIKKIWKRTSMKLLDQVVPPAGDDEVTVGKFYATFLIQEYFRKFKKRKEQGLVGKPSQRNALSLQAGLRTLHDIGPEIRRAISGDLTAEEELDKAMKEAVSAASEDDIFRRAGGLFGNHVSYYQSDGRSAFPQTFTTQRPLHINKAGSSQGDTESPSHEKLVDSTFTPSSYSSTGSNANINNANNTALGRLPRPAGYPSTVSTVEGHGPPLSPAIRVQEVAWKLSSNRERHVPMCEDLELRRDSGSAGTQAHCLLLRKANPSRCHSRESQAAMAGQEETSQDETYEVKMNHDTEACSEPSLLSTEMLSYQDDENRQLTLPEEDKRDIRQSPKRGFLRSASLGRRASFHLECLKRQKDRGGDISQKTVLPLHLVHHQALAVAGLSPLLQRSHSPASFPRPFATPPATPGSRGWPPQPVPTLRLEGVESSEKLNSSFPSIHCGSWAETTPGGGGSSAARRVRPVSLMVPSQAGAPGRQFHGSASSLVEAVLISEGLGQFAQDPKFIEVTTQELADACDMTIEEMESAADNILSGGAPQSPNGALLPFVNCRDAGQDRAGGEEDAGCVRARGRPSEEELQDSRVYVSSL

Row | Structure (SMILES) | EC50 [1, 5] | QPatch Emax [1] | Biophysics voltage shift [2, 6] | QPatch Emax ([1]; comparative examples) | EC50 [1, 7] | Biophysics voltage shift ([2]; comparative examples) | also measured
1 | COC(=O)C1=C(C)NC2=C(C(=O)OC2)[C@H]1c1cncc(F)c1[C@@H](C)F (single isomer, unassigned) [Example 1, methyl(S)-4-(5-fluoro-4-((R)-1-fluoroethyl)pyridin-3-yl)-2-methyl-5-oxo-1,4,5,7-tetrahydrofuro [3,4-b]pyridine-3-carboxylate or methyl(S)-4-(5-fluoro-4-((S)-1-fluoroethyl)pyridin-3-yl)-2-methyl-5-oxo-1,4,5,7-tetrahydrofuro [3,4-b]pyridine-3-carboxylate] | 220 nM | 3.3 | −6.6 mV | – | – | – | Brain: blood Ratio [3]: 0.2; %↑ cFOS mRNA cortex [4]: 174%
2 | COC(=O)C1=C(C(F)F)NC2=C(C(=O)OC2)[C@H]1c1cncc(F)c1[C@@H](C)F (single isomer, unassigned) [Example 6, methyl 2-(difluoromethyl)-4-(5-fluoro-4-(1-fluoroethyl)pyridin-3-yl)-5-oxo-1,4,5,7-tetrahydrofuro [3,4-b]pyridine-3-carboxylate] | 250 nM | 2.5 | −5.6 mV | – | – | – | –
3 | COC(=O)C1=C(C)NC(C)=C([N+](=O)[O-])[C@H]1c1ccccc1C(F)(F)F [Comparative Example 1, BayK8644] | – | – | – | 3.9 | – | – | –
4 | CCOC(=O)C1=C(C)NC2=C(C(=O)OC2)[C@H]1c1ccccc1OCc1ccccc1 [Comparative Example 2, RS30124] | – | – | – | 4.3 | 450 nM | −15.4 mV | –
5 | CCOC(=O)C1=C(C)NC2=C(C(=O)OC2)[C@H]1c1ccccc1OC(F)F [Comparative Example 3, CGP028392] | – | – | – | 2.2 | 280 nM | −6.7 mV | –
6 | COC(=O)C1=C(C)NC2=C(C(=O)OC2)C1c1ccccc1C (stereo not shown) [Comparative Example 4] | – | – | – | 1.4 | 2240 nM | – | –
7 | COC(=O)C1=C(C)NC2=C(C(=O)OC2)C1c1ccccc1C(F)(F)F (stereo not shown) [Comparative Example 5] | – | – | – | 1.4 | 360 nM | −4.3 mV | –
8 | COC(=O)C1=C(C)NC2=C(C(=O)OC2)C1c1ccccc1OC(F)F (stereo not shown) [Comparative Example 6] | – | – | – | 1.7 | 510 nM | −7.1 mV | –
9 | CCOC(=O)C1=C(C)NC2=C(C(=O)OC2)C1c1ccccc1C(F)(F)F (stereo not shown) [Comparative Example 7] | – | – | – | 1.9 | 930 nM | – | –
10 | COC(=O)C1=C(CF)NC2=C(C(=O)OC2)[C@H]1c1cncc(F)c1[C@@H](C)F [Example 2, methyl (R)-4-(5-fluoro-4-((R)-1-fluoroethyl)pyridin-3-yl)-2-(fluoromethyl)-5-oxo-1,4,5,7-tetrahydrofuro [3,4-b]pyridine-3-carboxylate] | 61 nM | 2.2 | −5.9 mV | – | – | – | activity in the Sophion QPatch assay relative to the enantiomer ([1]; comparison of stereoisomers): higher activity than its corresponding enantiomer; Kp at 1 h ([3]; mouse, brain (cerebellum) / blood, ip, 3 mg/kg, read-out: Brain: blood Ratio): 1.5; %↑ cFOS mRNA cortex [4]: 384%
